Paper PMC5459845, “Expression and functional analysis of the lysine decarboxylase and copper amine oxidase genes from the endophytic fungus Colletotrichum gloeosporioides ES026” (Scientific Reports, 2017)

Experiments:
CgCAO = molecular target: T1, CgCAO (Colletotrichum gloeosporioides, UniProt A0A191JKR0); test: LC-MS detection of delta1-piperideine (m/z […]); type: biochemical; conditions: 1 mM cadaverine, 50 mM Tris-HCl pH 8.0, 25 °C, 16 h; boiled enzyme as negative control
T1 construct: 672 residues, 76 kDa, cDNA 2072 bp
T1 sequence (A0A191JKR0 1-684): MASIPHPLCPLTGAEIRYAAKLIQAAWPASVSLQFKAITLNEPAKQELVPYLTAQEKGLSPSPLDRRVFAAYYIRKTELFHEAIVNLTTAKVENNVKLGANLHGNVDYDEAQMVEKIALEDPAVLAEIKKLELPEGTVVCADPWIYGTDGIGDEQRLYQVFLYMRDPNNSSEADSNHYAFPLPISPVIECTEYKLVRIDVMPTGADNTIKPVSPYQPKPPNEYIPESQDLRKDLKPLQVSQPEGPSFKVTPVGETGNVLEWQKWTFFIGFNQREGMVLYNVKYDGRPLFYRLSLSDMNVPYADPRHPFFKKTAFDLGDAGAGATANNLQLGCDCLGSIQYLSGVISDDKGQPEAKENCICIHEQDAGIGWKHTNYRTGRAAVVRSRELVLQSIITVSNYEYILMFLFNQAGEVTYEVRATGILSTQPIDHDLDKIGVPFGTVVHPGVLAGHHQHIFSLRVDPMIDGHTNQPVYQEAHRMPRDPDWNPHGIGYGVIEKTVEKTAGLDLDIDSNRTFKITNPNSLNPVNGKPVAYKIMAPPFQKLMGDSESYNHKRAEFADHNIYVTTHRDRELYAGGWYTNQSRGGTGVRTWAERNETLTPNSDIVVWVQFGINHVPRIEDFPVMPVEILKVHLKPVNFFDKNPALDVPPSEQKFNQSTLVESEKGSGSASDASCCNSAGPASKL

CgLDC = molecular target: T2, CgLDC (Colletotrichum gloeosporioides, UniProt A0A1X9J191); test: LC-MS detection of cadaverine (m/z […]); type: biochemical; conditions: pyridoxal phosphate 40 µg, potassium phosphate pH 8.0, 37 °C, 45 min; boiled enzyme as negative control
T2 construct: 256 residues, 28 kDa, cDNA 769 bp
T2 sequence (A0A1X9J191 62-294): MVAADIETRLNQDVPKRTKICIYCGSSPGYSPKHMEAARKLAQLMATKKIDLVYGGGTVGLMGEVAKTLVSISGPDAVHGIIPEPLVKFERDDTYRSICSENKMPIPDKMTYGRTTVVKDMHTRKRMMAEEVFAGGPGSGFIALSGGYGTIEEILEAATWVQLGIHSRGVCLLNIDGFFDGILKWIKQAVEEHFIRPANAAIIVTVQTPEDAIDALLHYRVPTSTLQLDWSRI

SMILES | LC-MS detection of delta1-piperideine (m/z 84) (CgCAO) | LC-MS detection of cadaverine (m/z 103) (CgLDC)
NCCCCCN [cadaverine] | CgCAO converted cadaverine to 5-aminopentanal | 
NCCCC[C@H](N)C(=O)O [L-lysine] |  | CgLDC catalyzed the conversion of L-lysine to cadaverine
